Results on two molecules are retold here after ChEMBL document CHEMBL4507311, “Data for DCP probe A-1155463” (2021).

Assay [1] addresses 5-hydroxytryptamine receptor 7 (Homo sapiens) (UniProt P34969). The assay can be described thus: 5-HT7 (h) Eurofins-Cerep binding assay. Further details: ligand concentration 4 nM; call rule not given here. Conditions: filed as agonist, Compound concentration 10.0 uM.
In assay [2] the target is Tumor necrosis factor (Homo sapiens) (UniProt P01375). Put plainly: TNF-alpha (h) Eurofins-Cerep binding assay. Further details: ligand concentration 0.1 nM. As to conditions: filed as agonist, Compound concentration 10.0 uM.
Sequence of Tumor necrosis factor (Homo sapiens) (P01375 whole entry): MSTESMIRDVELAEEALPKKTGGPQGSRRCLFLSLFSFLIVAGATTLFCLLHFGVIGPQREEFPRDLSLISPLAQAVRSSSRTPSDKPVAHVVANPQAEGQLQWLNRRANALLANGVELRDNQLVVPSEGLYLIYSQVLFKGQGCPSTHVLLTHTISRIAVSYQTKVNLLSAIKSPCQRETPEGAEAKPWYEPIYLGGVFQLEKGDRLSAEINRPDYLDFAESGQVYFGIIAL
Assay [3] has as its target Motilin receptor (Homo sapiens) (UniProt O43193). The assay can be described thus: motilin (h Eurofins-Cerep binding assay. Further details: ligand concentration 0.05 nM. As to conditions: filed as agonist, Compound concentration 10.0 uM.
In assay [4] the target is Sigma non-opioid intracellular receptor 1 (Homo sapiens, UniProt Q99720). Put plainly: sigma (non-selective) (h) Eurofins-Cerep binding assay. Conditions: filed as agonist, Compound concentration 10.0 uM. Further details: ligand concentration 10 nM.
The target of assay [5] is Endothelin receptor type B (Homo sapiens) (UniProt P24530). The assay can be described thus: ETB (h) Eurofins-Cerep binding assay. Further details: ligand concentration 0.03 nM. As to conditions: filed as agonist, Compound concentration 10.0 uM.
Sequence of Endothelin receptor type B (Homo sapiens) (P24530 whole entry): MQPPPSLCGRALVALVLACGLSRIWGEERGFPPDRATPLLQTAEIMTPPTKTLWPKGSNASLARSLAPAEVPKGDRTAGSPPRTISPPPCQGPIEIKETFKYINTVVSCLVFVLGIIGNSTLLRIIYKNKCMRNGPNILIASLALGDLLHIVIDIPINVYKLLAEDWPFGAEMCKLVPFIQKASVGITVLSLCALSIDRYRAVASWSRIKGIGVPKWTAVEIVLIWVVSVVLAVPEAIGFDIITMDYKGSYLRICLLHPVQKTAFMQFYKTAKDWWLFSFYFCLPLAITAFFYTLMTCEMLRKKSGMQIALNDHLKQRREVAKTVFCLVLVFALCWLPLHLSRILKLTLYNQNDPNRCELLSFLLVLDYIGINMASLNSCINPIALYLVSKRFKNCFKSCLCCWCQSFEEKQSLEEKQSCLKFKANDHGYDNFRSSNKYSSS
Assay [6] addresses Type-1 angiotensin II receptor (Homo sapiens) (UniProt P30556). Put plainly: AT1 (h) Eurofins-Cerep binding assay. Conditions: filed as antagonist, Compound concentration 10.0 uM. Further details: ligand concentration 0.05 nM.
In assay [7] the target is Sodium- and chloride-dependent GABA transporter 1 (Rattus norvegicus) (UniProt P23978). The assay can be described thus: GABA transporter Eurofins-Cerep binding assay. Further details: ligand concentration 10 nM. Conditions: filed as antagonist, Compound concentration 10.0 uM.
In assay [8] the target is T1, Alpha-1B adrenergic receptor (Homo sapiens) (UniProt P35368).
T1 sequence (whole entry): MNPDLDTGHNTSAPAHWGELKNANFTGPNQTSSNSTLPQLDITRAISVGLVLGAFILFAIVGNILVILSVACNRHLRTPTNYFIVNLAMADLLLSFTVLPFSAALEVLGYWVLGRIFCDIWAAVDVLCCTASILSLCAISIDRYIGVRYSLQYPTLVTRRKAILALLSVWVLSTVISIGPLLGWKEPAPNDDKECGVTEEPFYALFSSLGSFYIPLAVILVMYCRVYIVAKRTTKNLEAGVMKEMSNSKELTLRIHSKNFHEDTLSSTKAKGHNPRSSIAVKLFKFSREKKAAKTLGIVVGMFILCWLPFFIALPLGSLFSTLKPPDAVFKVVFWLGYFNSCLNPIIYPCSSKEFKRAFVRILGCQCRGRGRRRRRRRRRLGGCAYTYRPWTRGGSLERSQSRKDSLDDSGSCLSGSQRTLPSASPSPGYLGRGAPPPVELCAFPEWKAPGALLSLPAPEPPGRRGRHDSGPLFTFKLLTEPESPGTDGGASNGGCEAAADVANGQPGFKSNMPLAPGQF
The assay can be described thus: Alpha1B (h) Eurofins-Cerep binding assay. Further details: ligand concentration 0.15 nM. Conditions: filed as antagonist, Compound concentration 10.0 uM.

In assay [9] the target is cGMP-inhibited 3',5'-cyclic phosphodiesterase 3A (Homo sapiens) (UniProt Q14432). The assay can be described thus: PDE3A (h) Eurofins-Cerep enzyme and uptake assay. Conditions: Compound concentration 10.0 uM.
Sequence of cGMP-inhibited 3',5'-cyclic phosphodiesterase 3A (Homo sapiens) (Q14432 whole entry): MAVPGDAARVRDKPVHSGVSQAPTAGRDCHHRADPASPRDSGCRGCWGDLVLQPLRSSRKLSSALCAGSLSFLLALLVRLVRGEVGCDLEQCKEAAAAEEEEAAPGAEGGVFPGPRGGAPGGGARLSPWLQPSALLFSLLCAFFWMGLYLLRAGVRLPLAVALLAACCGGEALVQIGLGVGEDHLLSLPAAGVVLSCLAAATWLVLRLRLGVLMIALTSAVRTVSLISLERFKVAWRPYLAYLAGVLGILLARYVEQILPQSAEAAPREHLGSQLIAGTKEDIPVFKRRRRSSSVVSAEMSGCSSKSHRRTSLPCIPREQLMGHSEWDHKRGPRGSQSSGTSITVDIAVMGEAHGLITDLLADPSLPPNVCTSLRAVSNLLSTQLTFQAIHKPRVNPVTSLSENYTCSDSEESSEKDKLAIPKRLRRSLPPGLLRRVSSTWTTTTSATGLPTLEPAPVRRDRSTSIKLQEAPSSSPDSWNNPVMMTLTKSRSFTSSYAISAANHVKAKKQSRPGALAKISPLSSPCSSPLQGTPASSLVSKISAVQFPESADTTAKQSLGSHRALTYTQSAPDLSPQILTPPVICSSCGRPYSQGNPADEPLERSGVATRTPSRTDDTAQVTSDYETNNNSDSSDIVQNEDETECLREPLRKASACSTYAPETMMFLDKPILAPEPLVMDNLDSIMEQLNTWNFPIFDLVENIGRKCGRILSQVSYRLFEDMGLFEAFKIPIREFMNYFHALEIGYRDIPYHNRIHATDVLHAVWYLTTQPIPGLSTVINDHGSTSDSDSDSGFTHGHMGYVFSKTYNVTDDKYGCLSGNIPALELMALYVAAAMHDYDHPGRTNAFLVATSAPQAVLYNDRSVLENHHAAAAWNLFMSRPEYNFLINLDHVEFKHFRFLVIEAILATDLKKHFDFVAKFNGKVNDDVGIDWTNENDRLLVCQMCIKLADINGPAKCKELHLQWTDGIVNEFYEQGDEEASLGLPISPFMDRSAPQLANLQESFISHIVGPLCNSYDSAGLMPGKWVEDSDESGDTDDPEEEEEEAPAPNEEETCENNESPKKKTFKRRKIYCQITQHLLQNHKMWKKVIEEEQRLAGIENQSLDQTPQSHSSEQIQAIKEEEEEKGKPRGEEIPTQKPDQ
The target in assay [10] is T2, Muscarinic acetylcholine receptor M5 (Homo sapiens) (UniProt P08912).
T2 sequence (whole entry): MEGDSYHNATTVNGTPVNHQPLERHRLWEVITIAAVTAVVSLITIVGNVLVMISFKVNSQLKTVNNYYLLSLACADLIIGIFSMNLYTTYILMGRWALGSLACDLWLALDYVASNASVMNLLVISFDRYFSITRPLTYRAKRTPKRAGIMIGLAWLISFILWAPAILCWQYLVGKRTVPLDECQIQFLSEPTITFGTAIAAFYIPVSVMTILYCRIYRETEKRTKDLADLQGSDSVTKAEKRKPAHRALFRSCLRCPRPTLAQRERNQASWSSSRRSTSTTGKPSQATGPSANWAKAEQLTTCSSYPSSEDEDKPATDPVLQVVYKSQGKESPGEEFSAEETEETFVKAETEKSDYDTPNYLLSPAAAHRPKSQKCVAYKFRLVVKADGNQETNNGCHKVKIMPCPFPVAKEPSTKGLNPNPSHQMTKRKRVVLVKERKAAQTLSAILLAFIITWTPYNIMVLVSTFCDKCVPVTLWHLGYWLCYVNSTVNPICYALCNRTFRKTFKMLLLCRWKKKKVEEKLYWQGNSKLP
Put plainly: M5 (h) Eurofins-Cerep binding assay. Further details: ligand concentration 0.3 nM. As to conditions: filed as antagonist, Compound concentration 10.0 uM.

The target in assay [11] is 5-hydroxytryptamine receptor 1B (Homo sapiens) (UniProt P28222). Put plainly: 5-HT1B(h) Eurofins-Cerep binding assay. Conditions: filed as antagonist, Compound concentration 10.0 uM. Further details: ligand concentration 1 nM.
Assay [12] deals with B2 bradykinin receptor (Homo sapiens) (UniProt P30411). Put plainly: B2 (h) Eurofins-Cerep binding assay. Further details: ligand concentration 0.3 nM. Conditions: filed as agonist, Compound concentration 10.0 uM.
Assay [13] has as its target Delta-type opioid receptor (Homo sapiens, UniProt P41143). Put plainly: delta (DOP) (h) Eurofins-Cerep binding assay. Further details: ligand concentration 0.5 nM. As to conditions: filed as agonist, Compound concentration 10.0 uM.
For assay [14], the target named is Apoptosis regulator Bcl-2 (Homo sapiens, UniProt P10415). Put plainly: Time-resolved fluorescence energy transfer (TR-FRET) with BCL2. In general terms: Time-resolved FRET reads energy transfer from a long-lived donor to a nearby acceptor.
Sequence of Apoptosis regulator Bcl-2 (P10415 whole entry): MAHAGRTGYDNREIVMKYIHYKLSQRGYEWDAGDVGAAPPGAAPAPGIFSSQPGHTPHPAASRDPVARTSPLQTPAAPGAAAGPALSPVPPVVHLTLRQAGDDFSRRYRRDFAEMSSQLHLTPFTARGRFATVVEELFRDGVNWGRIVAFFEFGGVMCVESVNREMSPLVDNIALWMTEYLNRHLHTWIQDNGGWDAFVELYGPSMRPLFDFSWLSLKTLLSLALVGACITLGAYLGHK
The target of assay [15] is Beta-1 adrenergic receptor (Homo sapiens) (UniProt P08588). The assay can be described thus: Beta1 (h) Eurofins-Cerep binding assay. Further details: ligand concentration 0.3 nM. Conditions: filed as agonist, Compound concentration 10.0 uM.
Sequence of Beta-1 adrenergic receptor (Homo sapiens) (P08588 whole entry, looked up): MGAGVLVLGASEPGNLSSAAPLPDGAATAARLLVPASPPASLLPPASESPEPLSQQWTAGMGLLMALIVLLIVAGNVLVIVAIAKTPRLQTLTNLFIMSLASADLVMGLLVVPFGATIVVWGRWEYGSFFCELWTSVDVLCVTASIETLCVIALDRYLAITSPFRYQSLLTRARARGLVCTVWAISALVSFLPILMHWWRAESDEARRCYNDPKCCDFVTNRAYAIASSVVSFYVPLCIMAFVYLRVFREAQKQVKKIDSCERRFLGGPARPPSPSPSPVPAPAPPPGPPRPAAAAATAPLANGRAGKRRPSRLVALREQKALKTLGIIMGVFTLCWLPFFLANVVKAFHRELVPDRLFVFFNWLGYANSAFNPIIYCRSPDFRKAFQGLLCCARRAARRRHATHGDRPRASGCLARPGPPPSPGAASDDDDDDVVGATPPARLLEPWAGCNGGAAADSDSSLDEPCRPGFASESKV
Assay [16] deals with T3, Alpha-2A adrenergic receptor (Homo sapiens) (UniProt P08913).
T3 sequence (whole entry): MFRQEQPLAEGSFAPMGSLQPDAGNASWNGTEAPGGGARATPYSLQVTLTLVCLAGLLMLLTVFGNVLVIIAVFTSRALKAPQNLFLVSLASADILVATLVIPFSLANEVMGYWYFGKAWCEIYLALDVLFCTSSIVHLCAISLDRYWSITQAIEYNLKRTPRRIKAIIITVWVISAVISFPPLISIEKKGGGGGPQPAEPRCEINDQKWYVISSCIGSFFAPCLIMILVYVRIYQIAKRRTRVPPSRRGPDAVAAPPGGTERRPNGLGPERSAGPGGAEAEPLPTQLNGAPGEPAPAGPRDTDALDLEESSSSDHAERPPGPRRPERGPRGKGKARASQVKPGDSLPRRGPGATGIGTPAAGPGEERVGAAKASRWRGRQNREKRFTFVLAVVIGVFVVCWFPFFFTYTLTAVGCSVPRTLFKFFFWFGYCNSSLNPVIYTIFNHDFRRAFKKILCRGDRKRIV
Put plainly: Alpha2A (h) Eurofins-Cerep binding assay. Further details: ligand concentration 1 nM. As to conditions: filed as antagonist, Compound concentration 10.0 uM.

In assay [17] the target is D(2) dopamine receptor (Homo sapiens) (UniProt P14416). The assay can be described thus: D2S (h) Eurofins-Cerep binding assay. Further details: ligand concentration 0.3 nM. Conditions: filed as antagonist, Compound concentration 10.0 uM.
The target of assay [18] is T4, Alpha-2B adrenergic receptor (Homo sapiens) (UniProt P18089).
T4 sequence (whole entry): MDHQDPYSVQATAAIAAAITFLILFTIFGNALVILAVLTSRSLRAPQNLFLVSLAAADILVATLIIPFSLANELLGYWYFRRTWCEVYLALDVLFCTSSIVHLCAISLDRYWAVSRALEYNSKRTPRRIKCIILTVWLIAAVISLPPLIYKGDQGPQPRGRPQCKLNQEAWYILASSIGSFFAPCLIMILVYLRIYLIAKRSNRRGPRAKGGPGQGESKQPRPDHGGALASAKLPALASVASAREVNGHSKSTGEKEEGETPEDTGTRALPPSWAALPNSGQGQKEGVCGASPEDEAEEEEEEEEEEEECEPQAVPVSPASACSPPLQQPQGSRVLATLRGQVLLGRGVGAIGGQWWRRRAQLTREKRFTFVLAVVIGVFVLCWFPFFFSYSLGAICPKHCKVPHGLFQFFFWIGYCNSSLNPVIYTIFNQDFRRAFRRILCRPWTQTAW
The assay can be described thus: Alpha2B (h) Eurofins-Cerep binding assay. Further details: ligand concentration 2.5 nM. Conditions: filed as antagonist, Compound concentration 10.0 uM.

Assay [19] concerns the target 5-hydroxytryptamine receptor 4 (Homo sapiens) (UniProt Q13639). Put plainly: 5-HT4 e (h) Eurofins-Cerep binding assay. Further details: ligand concentration 0.3 nM. Conditions: filed as antagonist, Compound concentration 10.0 uM.
Assay [20] deals with Histamine H1 receptor (Homo sapiens) (UniProt P35367). The assay can be described thus: H1 (h) Eurofins-Cerep binding assay. Further details: ligand concentration 1 nM. Conditions: filed as antagonist, Compound concentration 10.0 uM.
Sequence of Histamine H1 receptor (Homo sapiens) (P35367 whole entry): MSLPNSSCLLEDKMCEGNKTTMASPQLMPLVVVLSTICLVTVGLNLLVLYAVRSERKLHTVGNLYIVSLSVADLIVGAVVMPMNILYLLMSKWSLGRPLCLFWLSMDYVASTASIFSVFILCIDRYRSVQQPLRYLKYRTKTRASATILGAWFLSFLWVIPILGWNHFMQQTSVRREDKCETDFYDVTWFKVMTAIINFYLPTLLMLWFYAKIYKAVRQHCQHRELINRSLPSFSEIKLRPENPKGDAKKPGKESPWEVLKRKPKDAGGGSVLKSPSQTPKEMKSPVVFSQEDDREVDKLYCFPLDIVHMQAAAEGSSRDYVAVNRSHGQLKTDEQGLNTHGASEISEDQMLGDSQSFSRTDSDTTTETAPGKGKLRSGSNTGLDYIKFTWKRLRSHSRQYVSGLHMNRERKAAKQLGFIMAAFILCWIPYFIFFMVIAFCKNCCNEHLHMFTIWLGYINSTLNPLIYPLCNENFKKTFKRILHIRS

Sequence of Type-1 angiotensin II receptor (Homo sapiens) (P30556 whole entry): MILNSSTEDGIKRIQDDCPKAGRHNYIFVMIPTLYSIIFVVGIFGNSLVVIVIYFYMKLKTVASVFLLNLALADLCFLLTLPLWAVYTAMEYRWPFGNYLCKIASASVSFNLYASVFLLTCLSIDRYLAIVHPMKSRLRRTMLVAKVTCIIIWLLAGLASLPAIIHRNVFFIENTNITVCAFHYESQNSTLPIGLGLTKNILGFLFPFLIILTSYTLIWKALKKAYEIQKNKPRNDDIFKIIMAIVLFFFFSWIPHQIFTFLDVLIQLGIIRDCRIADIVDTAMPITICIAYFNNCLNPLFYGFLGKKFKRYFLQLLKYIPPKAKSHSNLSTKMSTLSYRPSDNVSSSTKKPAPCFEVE
Sequence of Delta-type opioid receptor (P41143 whole entry): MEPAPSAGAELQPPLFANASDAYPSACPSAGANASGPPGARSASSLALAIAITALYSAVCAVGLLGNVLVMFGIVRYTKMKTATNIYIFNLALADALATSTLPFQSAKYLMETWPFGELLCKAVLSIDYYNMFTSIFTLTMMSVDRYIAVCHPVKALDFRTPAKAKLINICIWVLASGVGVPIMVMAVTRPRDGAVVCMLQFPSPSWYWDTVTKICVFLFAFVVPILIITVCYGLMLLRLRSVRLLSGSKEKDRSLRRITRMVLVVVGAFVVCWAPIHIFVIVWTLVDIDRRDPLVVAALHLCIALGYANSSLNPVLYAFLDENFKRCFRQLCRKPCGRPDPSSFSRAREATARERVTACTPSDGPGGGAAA
Sequence of Motilin receptor (Homo sapiens) (O43193 whole entry): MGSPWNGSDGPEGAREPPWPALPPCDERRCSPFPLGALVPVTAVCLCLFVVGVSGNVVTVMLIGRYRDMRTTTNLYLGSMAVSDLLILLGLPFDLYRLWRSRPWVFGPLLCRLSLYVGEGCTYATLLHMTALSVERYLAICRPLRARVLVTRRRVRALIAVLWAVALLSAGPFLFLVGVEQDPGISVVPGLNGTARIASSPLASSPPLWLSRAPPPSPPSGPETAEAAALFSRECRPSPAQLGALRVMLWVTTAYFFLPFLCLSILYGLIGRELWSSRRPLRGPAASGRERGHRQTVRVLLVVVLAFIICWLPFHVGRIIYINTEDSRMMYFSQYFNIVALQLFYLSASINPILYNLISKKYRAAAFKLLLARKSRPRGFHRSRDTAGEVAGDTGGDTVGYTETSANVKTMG

What is called IC50 is the concentration needed to halve the response being measured. High values mean weaker potency in that assay, low ones greater potency in that assay. With `CN(C)CC#Cc1ccc(OCCCc2sc(N3CCc4cccc(C(=O)Nc5nc6ccccc6s5)c4C3)nc2C(=O)O)c(F)c1` [A-1155463], the % Inhibition of Control Specific Binding (Mean n=2) in [1] was 16.9%; in [2] it was -6.3%; in assay [3] it was -21.6%; in assay [4] it was 57.8%; in assay [5] it was 9.6%; in [6] it was 20.5%. The % Inhibition of Control Specific Binding (Mean n=2) in assay [7] was 17.3%; in [8] it was 15.5%; in assay [10] it was 10.3%; in assay [11], -7.1%; in assay [12], -7%; in assay [13], 77.9%. Further, the % Inhibition of Control Specific Binding (Mean n=2) was 1.4% in assay [15]; 12.1% in assay [16]; 27.1% in assay [17]; -2.5% in assay [18]; 6.7% in [19]; 69.2% in assay [20]. Besides, the % Inhibition of Control Values (Mean n=2) in assay [9] was -17.3%. Also, the IC50 in assay [14] is on record as 382 nM (not active).
`O=C(Nc1nc2ccccc2s1)c1cccc2c1CN(c1nc(C(=O)O)c(CCOc3ccc(-n4ncc5cncnc54)cc3)s1)CC2` [A-1107969]: the % Inhibition of Control Specific Binding (Mean n=2) is 11.4% in assay [1]; -1.7% in assay [2]; 2.2% in [3]; -47.8% in assay [4]; 0.8% in assay [5]; -3.5% in assay [6]. For the same molecule, the % Inhibition of Control Specific Binding (Mean n=2) in [7] was -1.5%; in assay [8], -4.7%; in [10] it was 8.8%; in [11] it was -39.6%; in [12], -20.2%; in [13], -1.8%. The % Inhibition of Control Specific Binding (Mean n=2) in assay [15] was -0.4%; in [16], 1.9%; in [17], 13.5%; in assay [18], -17.8%; in assay [19] it was -4%; in [20], -9.3%. Further, the % Inhibition of Control Values (Mean n=2) in assay [9] was -7.5%. In addition, the IC50 in [14] was 3780 nM (not active).
